# Test results from ChEMBL document CHEMBL6134931, “Lysine-Targeted Covalent Strategy Leading to the Discovery of Novel Potent PROTAC-Based PI3Kδ Degraders” (J Med Chem, 2025).
# Activity calls are given as the source filed them. The rule behind the calls is not given here.
# Key:
# SU-DHL-6 [1] = test: Induction of apoptosis in human SU-DHL-6 cells assessed as necrotic cells at 1 uM incubated for 24 hrs by Annexin V-FITC/PI staining based flow cytometric analysis (reference value: 0.39 %); assay type: functional
# SU-DHL-6 [2] = test: Antitumor activity against human SU-DHL-6 cells xenografted in male nude mouse model assessed as tumor growth inhibition at 10 mg/kg, ip administered for 21 days relative to control; assay type: functional; conditions: SU-DHL-6, 504 h, time 21 day, read-out: TGI
# [3] = molecular target: Phosphatidylinositol 4,5-bisphosphate 3-kinase catalytic subunit beta isoform (Homo sapiens, UniProt P42338); test: Inhibition of PI3Kbeta (unknown origin) preincubated for 30 mins followed by ATP addition and measured after 1 hrs by ADP-Glo reagent based analysis
# Sequence of Phosphatidylinositol 4,5-bisphosphate 3-kinase catalytic subunit beta isoform (P42338 whole entry, canonical isoform): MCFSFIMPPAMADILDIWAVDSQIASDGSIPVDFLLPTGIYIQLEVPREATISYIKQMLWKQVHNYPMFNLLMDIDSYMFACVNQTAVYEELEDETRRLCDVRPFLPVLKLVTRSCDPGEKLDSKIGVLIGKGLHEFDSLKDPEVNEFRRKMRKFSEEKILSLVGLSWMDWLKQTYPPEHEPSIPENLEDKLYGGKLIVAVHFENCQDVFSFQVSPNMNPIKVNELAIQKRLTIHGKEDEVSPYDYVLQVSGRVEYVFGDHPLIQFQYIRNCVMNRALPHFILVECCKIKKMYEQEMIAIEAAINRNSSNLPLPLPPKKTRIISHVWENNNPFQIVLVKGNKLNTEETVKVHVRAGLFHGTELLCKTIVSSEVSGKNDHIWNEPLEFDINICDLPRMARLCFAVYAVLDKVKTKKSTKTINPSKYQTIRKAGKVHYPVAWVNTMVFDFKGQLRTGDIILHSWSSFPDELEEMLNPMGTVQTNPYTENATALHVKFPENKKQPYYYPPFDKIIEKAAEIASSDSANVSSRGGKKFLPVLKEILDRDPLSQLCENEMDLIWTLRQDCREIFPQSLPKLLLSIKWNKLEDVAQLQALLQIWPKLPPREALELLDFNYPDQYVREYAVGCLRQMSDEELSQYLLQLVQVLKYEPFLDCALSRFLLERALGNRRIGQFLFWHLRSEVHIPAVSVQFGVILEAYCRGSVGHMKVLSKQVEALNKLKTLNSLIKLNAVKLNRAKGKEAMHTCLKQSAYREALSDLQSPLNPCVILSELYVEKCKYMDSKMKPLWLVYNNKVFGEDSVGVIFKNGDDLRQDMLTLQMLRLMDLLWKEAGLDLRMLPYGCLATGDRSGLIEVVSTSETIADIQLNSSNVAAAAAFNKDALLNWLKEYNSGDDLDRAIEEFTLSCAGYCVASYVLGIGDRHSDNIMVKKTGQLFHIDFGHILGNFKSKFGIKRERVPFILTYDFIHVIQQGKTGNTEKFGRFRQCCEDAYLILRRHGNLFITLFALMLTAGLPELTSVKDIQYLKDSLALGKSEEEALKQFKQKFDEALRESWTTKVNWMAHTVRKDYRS
# SU-DHL-6 [4] = test: Induction of apoptosis in human SU-DHL-6 cells assessed as early apoptotic cells at 0.1 uM incubated for 24 hrs by Annexin V-FITC/PI staining based flow cytometric analysis (reference value: 2.32 %); assay type: functional
# SU-DHL-6 [5] = test: Cell cycle arrest in human SU-DHL-6 cells assessed as increase in G1 phase cells at 0.1 uM incubated for 24 hrs by PI staining based flow cytometric analysis; assay type: functional
# SU-DHL-6 [6] = test: Induction of apoptosis in human SU-DHL-6 cells assessed as late apoptotic cells at 0.01 uM incubated for 24 hrs by Annexin V-FITC/PI staining based flow cytometric analysis (reference value: 4.75 %); assay type: functional
# SU-DHL-6 [7] = test: Induction of apoptosis in human SU-DHL-6 cells assessed as late apoptotic cells at 1 uM incubated for 24 hrs by Annexin V-FITC/PI staining based flow cytometric analysis (reference value: 4.75 %); assay type: functional
# SU-DHL-6 [8] = test: Induction of autophagy in human SU-DHL-6 cells assessed as increase in LC3-II to LC3-I ratio at 1 to 100 nM incubated for 24 hrs by Western blot analysis; assay type: functional, cell-based; conditions: dose 1-100 nM
# SU-DHL-6 [9] = test: Inhibition of AKT phosphorylation in human SU-DHL-6 cells at 0.1 to 1 uM incubated for 24 hrs by Western blot analysis; assay type: cell-based; conditions: dose 0.1-1 µM
# [10] = Toxicity in male nude mouse xenografted with human SU-DHL-6 cells assessed as effect on kidney morphology at 2 to 10 mg/kg, ip administered for 21 days by H and E staining based analysis; assay type: organism-based; conditions: in vivo, 504 h, dose 2-10 mg/kg, time 21 day
# [11] = molecular target: von Hippel-Lindau disease tumor suppressor/Phosphatidylinositol 4,5-bisphosphate 3-kinase catalytic subunit alpha isoform (Homo sapiens, UniProt P42336+P40337); test: PROTAC activity at VHL/p110alpha in human SU-DHL-6 cells assessed as induction of p110alpha degradation incubated for 24 hrs by Western blot analysis; assay type: cell-based
# Sequence of von Hippel-Lindau disease tumor suppressor/Phosphatidylinositol 4,5-bisphosphate 3-kinase catalytic subunit alpha isoform (P42336 whole entry, canonical isoform): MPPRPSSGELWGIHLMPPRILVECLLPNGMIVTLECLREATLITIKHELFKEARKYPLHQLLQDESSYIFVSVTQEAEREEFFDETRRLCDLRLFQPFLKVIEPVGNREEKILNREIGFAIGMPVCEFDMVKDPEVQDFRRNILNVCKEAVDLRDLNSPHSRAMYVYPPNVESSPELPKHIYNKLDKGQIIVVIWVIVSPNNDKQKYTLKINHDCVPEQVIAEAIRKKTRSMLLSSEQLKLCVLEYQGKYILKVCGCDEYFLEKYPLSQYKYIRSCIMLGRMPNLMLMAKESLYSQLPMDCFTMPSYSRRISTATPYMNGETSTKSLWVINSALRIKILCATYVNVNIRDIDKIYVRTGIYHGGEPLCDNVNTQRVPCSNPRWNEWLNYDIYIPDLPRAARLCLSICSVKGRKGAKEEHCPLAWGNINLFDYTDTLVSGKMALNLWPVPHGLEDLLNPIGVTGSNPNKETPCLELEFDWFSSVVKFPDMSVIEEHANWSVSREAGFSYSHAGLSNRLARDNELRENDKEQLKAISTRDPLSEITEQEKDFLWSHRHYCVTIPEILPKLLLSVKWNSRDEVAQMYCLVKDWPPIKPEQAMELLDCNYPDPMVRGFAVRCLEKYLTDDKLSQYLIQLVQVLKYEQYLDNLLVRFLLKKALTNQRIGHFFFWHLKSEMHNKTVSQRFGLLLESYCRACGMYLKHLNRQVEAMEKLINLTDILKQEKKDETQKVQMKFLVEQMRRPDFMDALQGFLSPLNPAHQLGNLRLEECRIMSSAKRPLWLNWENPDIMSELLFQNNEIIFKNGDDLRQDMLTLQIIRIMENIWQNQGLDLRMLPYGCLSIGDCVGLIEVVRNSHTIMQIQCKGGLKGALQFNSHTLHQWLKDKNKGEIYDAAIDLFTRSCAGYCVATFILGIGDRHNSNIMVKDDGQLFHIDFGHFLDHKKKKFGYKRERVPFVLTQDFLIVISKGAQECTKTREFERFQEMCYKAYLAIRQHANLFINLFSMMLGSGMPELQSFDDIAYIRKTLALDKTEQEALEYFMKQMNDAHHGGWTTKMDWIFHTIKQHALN
# Sequence of von Hippel-Lindau disease tumor suppressor/Phosphatidylinositol 4,5-bisphosphate 3-kinase catalytic subunit alpha isoform (P40337 whole entry, canonical isoform): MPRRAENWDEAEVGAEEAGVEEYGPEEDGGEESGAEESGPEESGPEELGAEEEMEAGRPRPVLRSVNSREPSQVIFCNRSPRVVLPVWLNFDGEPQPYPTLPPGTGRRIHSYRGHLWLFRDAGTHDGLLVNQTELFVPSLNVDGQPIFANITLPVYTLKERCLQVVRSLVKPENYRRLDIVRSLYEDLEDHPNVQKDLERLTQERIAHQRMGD
# [12] = Toxicity in male nude mouse xenografted with human SU-DHL-6 cells assessed as effect on spleen morphology at 2 to 10 mg/kg, ip administered for 21 days by H and E staining based analysis; assay type: organism-based; conditions: in vivo, 504 h, dose 2-10 mg/kg, time 21 day
# [13] = Toxicity in male nude mouse xenografted with human SU-DHL-6 cells assessed as effect on heart morphology at 2 to 10 mg/kg, ip administered for 21 days by H and E staining based analysis; assay type: organism-based; conditions: in vivo, 504 h, dose 2-10 mg/kg, time 21 day
# SU-DHL-6 [14] = test: Cell cycle arrest in human SU-DHL-6 cells assessed as increase in G1 phase cells incubated for 24 hrs by PI staining based flow cytometric analysis; assay type: functional; conditions: dose 0.01-1 µM
# SU-DHL-6 [15] = test: Antiproliferative activity against human SU-DHL-6 cells assessed as cell growth inhibition incubated for 72 hrs by MTT assay; assay type: functional
# SU-DHL-6 [16] = test: Induction of apoptosis in human SU-DHL-6 cells assessed as viable cells at 1 uM incubated for 24 hrs by Annexin V-FITC/PI staining based flow cytometric analysis (reference value: 92.54 %); assay type: functional; conditions: read-out: Activity
# [17] = Toxicity in male nude mouse xenografted with human SU-DHL-6 cells assessed as animal death at 2 to 10 mg/kg, ip administered for 21 days; assay type: organism-based; conditions: in vivo, 504 h, dose 2-10 mg/kg, time 21 day
# [18] = molecular target: von Hippel-Lindau disease tumor suppressor/Phosphatidylinositol 4,5-bisphosphate 3-kinase catalytic subunit beta isoform (Homo sapiens, UniProt P42338+P40337); test: PROTAC activity at VHL/p110beta in human SU-DHL-6 cells assessed as induction of p110beta degradation incubated for 24 hrs by Western blot analysis; assay type: cell-based
# Sequence of von Hippel-Lindau disease tumor suppressor/Phosphatidylinositol 4,5-bisphosphate 3-kinase catalytic subunit beta isoform (P42338 whole entry, canonical isoform): as the sequence (P42338 whole entry, canonical isoform) above
# Sequence of von Hippel-Lindau disease tumor suppressor/Phosphatidylinositol 4,5-bisphosphate 3-kinase catalytic subunit beta isoform (P40337 whole entry, canonical isoform): as the sequence (P40337 whole entry, canonical isoform) above
# [19] = Toxicity in male nude mouse xenografted with human SU-DHL-6 cells assessed as effect on body weight at 2 to 10 mg/kg, ip administered for 21 days; assay type: organism-based; conditions: in vivo, 504 h, dose 2-10 mg/kg, time 21 day
# SU-DHL-6 [20] = test: Induction of apoptosis in human SU-DHL-6 cells assessed as early apoptotic cells at 1 uM incubated for 24 hrs by Annexin V-FITC/PI staining based flow cytometric analysis (reference value: 2.32 %); assay type: functional
# SU-DHL-6 [21] = test: Inhibition of AKT phosphorylation in human SU-DHL-6 cells at 1 to 10000 nM incubated for 24 hrs by Western blot analysis; assay type: cell-based; conditions: dose 1-10000 nM
# SU-DHL-6 [22] = test: Induction of apoptosis in human SU-DHL-6 cells assessed as necrotic cells at 0.1 uM incubated for 24 hrs by Annexin V-FITC/PI staining based flow cytometric analysis (reference value: 0.39 %); assay type: functional
# SU-DHL-6 [23] = test: Induction of apoptosis in human SU-DHL-6 cells assessed as early apoptotic cells at 0.01 uM incubated for 24 hrs by Annexin V-FITC/PI staining based flow cytometric analysis (reference value: 2.32 %); assay type: functional
# [24] = Stability of compound in PBS at pH 7.4 assessed as parent compound remaining measured after 48 hrs by HPLC analysis; assay type: physicochemical; conditions: read-out: Stability
# SU-DHL-6 [25] = test: Induction of apoptosis in human SU-DHL-6 cells assessed as necrotic cells at 0.01 uM incubated for 24 hrs by Annexin V-FITC/PI staining based flow cytometric analysis (reference value: 0.39 %); assay type: functional
# SU-DHL-6 [26] = test: Antitumor activity against human SU-DHL-6 cells xenografted in male nude mouse model assessed as reduction in Ki67 expression in tumor at 2 to 10 mg/kg, ip administered for 21 days by immunohistochemical analysis; assay type: functional, organism-based; conditions: dose 2-10 mg/kg, time 21.0 day
# SU-DHL-6 [27] = test: Induction of apoptosis in human SU-DHL-6 cells assessed as viable cells at 0.01 uM incubated for 24 hrs by Annexin V-FITC/PI staining based flow cytometric analysis (reference value: 92.54 %); assay type: functional; conditions: read-out: Activity
# [28] = Toxicity in male nude mouse xenografted with human SU-DHL-6 cells assessed as effect on liver morphology at 2 to 10 mg/kg, ip administered for 21 days by H and E staining based analysis; assay type: organism-based; conditions: in vivo, 504 h, dose 2-10 mg/kg, time 21 day
# SU-DHL-6 [29] = test: Induction of apoptosis in human SU-DHL-6 cells assessed as viable cells at 0.1 uM incubated for 24 hrs by Annexin V-FITC/PI staining based flow cytometric analysis (reference value: 92.54 %); assay type: functional; conditions: read-out: Activity
# Pfeiffer = test: Antiproliferative activity against human Pfeiffer cells assessed as cell growth inhibition incubated for 72 hrs by MTT assay; assay type: functional
# SU-DHL-6 [30] = test: Induction of apoptosis in human SU-DHL-6 cells assessed as late apoptotic cells at 0.1 uM incubated for 24 hrs by Annexin V-FITC/PI staining based flow cytometric analysis (reference value: 4.75 %); assay type: functional
# Mus musculus = test: In vivo inhibition of AKT phosphorylation in male nude mouse xenografted with human SU-DHL-6 cells assessed as reduction in p-AKT expression level in tumor administered intraperitoneally for 21 days by Western blot analysis; assay type: functional, organism-based; conditions: dose 2-10 mg/kg, route ip, time 21.0 day
# SU-DHL-6 [31] = test: Antitumor activity against human SU-DHL-6 cells xenografted in male nude mouse model assessed as tumor growth inhibition at 2 mg/kg, ip administered for 21 days relative to control; assay type: functional; conditions: SU-DHL-6, 504 h, time 21 day, read-out: TGI
# [32] = molecular target: Phosphatidylinositol 4,5-bisphosphate 3-kinase catalytic subunit alpha isoform (Homo sapiens, UniProt P42336); test: Inhibition of PI3Kalpha (unknown origin) preincubated for 30 mins followed by ATP addition and measured after 1 hrs by ADP-Glo reagent based analysis
# Sequence of Phosphatidylinositol 4,5-bisphosphate 3-kinase catalytic subunit alpha isoform (P42336 whole entry, canonical isoform): as the sequence (P42336 whole entry, canonical isoform) above
smiles,measurement,setting,value
COc1ncc(-c2ccc3ncnc(N[C@H]4CCN(C(=O)C5CCN(CCCCCCCCCC(=O)N[C@H](C(=O)N6C[C@H](O)C[C@H]6C(=O)N[C@@H](C)c6ccc(-c7scnc7C)cc6)C(C)(C)C)CC5)C4)c3n2)cc1C(=O)Oc1ccccc1,Activity,SU-DHL-6 [1],0.76%
same,inhibition in vivo at 10 mg/kg,SU-DHL-6 [2],73.3%
same,IC50,[3],> 10000 nM
same,Activity,SU-DHL-6 [4],0.75%
same,Activity,SU-DHL-6 [5],Active; More Potent Than 10 Um Idelalisib
same,Activity,SU-DHL-6 [6],6.92%
same,Activity,SU-DHL-6 [7],50.74%
same,Activity,SU-DHL-6 [8],Active
same,inhibition,SU-DHL-6 [9],Active
same,Activity,[10],Non-toxic
same,DC50,[11],> 1000 nM
same,Activity,[12],Non-toxic
same,Activity,[13],Non-toxic
same,Activity,SU-DHL-6 [14],Dose-dependent-effect
same,GI50,SU-DHL-6 [15],170 nM
same,viability at 1 µM,SU-DHL-6 [16],33.9%
same,Activity,[17],Non-toxic
same,DC50,[18],> 1000 nM
same,Activity,[19],Non-toxic
same,Activity,SU-DHL-6 [20],14.65%
same,inhibition,SU-DHL-6 [21],Active
same,Activity,SU-DHL-6 [22],0.65%
same,Activity,SU-DHL-6 [23],0.61%
same,remaining at 48 h,[24],> 80%
same,Activity,SU-DHL-6 [25],0.51%
same,Activity,SU-DHL-6 [26],Active
same,viability at 0.01 µM,SU-DHL-6 [27],91.7%
same,Activity,[28],Non-toxic
same,viability at 0.1 µM,SU-DHL-6 [29],91.5%
same,GI50,Pfeiffer,350 nM
same,Activity,SU-DHL-6 [30],7.11%
same,inhibition,Mus musculus,Dose-dependent-effect
same,inhibition in vivo at 2 mg/kg,SU-DHL-6 [31],59.1%
same,IC50,[32],589 nM
